Patent US20240132513A1, “BENZAZEPINE DERIVATIVES, COMPOSITIONS, AND METHODS FOR TREATING COGNITIVE IMPAIRMENT” (AGENEBIO, INC., priority 2022, published 2024)
Like-named read-outs stand apart in the source and are kept apart here.

How the values were obtained:
α5β3γ2 GABAA R = α5β3γ2 GABAA R (Homo sapiens, UniProt P18507+P31644); assay: Binding activity on GABAA R: inhibition of [3H]Ro15-1788 binding, α5 containing receptor
Procedure, shortened: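 Displacement of [3H]Ro15-1788 (flumazenil) measured at 4 °C over 1 h using 0.2 mg/ml membrane protein from Ltk cells carrying α5β3γ2 GABAA receptors, expression induced with 0.5 μM dexamethasone for 1 day; buffer pH 7.4 KH2PO4/EDTA/KCl. 10 μM diazepam defined nonspecific binding; filter-trapped radioactivity counted, in triplicate.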

GABAA R (α5β2γ2) = molecular target: T1, GABAA R (α5β2γ2) (Homo sapiens, UniProt P18507+P31644); assay: Positive allosteric modulator activity: potentiation of EC20 GABA current in oocytes; format: cell-based
T1 construct: expressed in transfected cells
T1 sequence (P31644 32-462): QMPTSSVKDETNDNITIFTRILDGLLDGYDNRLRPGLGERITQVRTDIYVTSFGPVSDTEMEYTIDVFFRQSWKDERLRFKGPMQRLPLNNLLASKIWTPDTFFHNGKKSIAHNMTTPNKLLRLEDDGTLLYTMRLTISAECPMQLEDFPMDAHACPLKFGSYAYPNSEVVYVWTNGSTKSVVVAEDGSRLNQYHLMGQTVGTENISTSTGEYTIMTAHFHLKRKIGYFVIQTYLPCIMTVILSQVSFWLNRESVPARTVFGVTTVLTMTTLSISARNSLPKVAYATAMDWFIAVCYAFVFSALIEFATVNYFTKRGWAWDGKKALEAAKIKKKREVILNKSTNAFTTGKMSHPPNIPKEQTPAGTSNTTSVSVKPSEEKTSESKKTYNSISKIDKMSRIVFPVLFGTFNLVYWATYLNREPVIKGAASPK
T1 sequence (P47870 25-512 partner limits assumed): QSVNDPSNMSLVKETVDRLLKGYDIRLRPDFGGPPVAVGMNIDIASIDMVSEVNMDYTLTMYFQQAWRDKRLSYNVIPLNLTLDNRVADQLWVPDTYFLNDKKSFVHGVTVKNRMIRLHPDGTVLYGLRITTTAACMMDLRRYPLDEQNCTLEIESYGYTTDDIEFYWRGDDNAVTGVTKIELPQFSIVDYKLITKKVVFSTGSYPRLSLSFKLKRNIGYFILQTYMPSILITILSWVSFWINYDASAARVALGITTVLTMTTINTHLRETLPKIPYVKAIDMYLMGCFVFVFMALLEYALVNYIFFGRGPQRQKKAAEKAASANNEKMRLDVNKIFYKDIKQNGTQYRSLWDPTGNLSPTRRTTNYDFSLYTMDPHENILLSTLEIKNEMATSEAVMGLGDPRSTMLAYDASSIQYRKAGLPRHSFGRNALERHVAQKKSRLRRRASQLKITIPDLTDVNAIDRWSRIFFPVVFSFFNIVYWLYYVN
T1 sequence (P18507 40-475): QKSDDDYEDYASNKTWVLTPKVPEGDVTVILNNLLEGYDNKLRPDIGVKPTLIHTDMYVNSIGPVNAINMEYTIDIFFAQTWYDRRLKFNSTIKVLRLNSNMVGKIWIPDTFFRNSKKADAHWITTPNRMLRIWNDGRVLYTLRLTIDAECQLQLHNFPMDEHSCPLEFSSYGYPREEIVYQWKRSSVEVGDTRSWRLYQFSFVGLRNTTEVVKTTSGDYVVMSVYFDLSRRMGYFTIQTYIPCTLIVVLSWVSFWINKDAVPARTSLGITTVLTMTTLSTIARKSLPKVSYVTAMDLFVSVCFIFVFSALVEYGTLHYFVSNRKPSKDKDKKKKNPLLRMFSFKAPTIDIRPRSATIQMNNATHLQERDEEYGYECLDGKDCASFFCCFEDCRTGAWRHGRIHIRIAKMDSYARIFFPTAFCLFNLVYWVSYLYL
Procedure, shortened: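 Xenopus oocytes injected with 1 ng α5:β2:γ2 cDNA (1:1:10 by weight), tested day 2, voltage-clamped at −60 mV under MBS superfusion.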

[1] = read-out: GABA α5 Functional Data: potentiation, @ 100 nM, EC20 GABA, ranges of the column heads
[2] = ranges of the column heads, [3H]Ro15-1788, Ltk cell membranes
[3] = read-out: GABA α5 Functional Data: potentiation

Chain of α5β3γ2 GABAA R (P31644 32-462): as the sequence (P31644 32-462) above
Chain of α5β3γ2 GABAA R (P28472 26-473 partner): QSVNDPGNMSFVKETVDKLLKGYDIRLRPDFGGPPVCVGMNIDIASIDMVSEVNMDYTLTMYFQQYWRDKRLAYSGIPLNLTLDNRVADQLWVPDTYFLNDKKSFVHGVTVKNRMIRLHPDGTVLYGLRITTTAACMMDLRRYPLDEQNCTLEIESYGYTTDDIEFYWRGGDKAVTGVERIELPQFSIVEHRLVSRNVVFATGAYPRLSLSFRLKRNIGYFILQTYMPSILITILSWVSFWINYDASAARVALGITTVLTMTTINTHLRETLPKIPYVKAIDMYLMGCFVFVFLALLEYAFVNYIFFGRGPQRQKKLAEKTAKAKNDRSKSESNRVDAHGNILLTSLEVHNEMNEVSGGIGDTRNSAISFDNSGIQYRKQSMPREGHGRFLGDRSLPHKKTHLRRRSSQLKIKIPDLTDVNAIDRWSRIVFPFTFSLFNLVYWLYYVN
Chain of α5β3γ2 GABAA R (P18507 40-475): as the sequence (P18507 40-475) above

| Ki (α5β3γ2 GABAA R; [2]) | activation at 0.1 µM (GABAA R (α5β2γ2); [3]) | SMILES | Ki (α5β3γ2 GABAA R) | activation at 0.1 µM (GABAA R (α5β2γ2); [1]) |
| --- | --- | --- | --- | --- |
| – | – | COc1ccc2c(c1)-c1nn(CC3CCCO3)cc1Cc1c(-c3nc(C(C)C)no3)ncn1-2 (stereo not drawn) [Compound 231] | < 100 nM | 5 to 20% |
| – | – | COc1ccc2c(c1)-c1nn(CC3COC3)cc1Cc1c(-c3noc(C(C)(C)OC)n3)ncn1-2 [Compound 312] | < 100 nM | 5 to 20% |
| < 100 nM | 5 to 20% | Cn1cc2c(n1)-c1cc(Cl)ccc1-n1cnc(-c3noc(C4COC4)n3)c1C2 [Compound 223] | – | – |
| – | – | CCn1cc2c(n1)-c1cc(OC)ccc1-n1cnc(-c3nc(CN4CCCC4)no3)c1C2 [Compound 267] | < 100 nM | 5 to 20% |
| < 100 nM | 20 to 50% | COc1ccc2c(c1)-c1c(cnn1Cc1ccccc1)Cc1c(-c3nc(C)no3)ncn1-2 [Compound 7] | – | – |
| – | – | COc1ccc2c(c1)-c1[nH]ncc1Cc1c(-c3nc(C(C)(C)C)no3)ncn1-2 [Compound 11] | < 100 nM | 5 to 20% |
| – | – | COc1ccc2c(c1)-c1[nH]ncc1Cc1c(-c3noc(COCC(F)(F)F)n3)ncn1-2 [Compound 174] | < 100 nM | 20 to 50% |
| < 100 nM | 20 to 50% | CC(C)(C)C#Cc1ncn2c1Cc1cn[nH]c1-c1cc(Cl)ccc1-2 [Compound 63] | – | – |
| < 100 nM | 20 to 50% | COCc1nc(-c2ncn3c2Cc2cn(C)nc2-c2cc(OC)ccc2-3)no1 [Compound 153] | – | – |
| – | – | COc1ccc2c(c1)-c1[nH]ncc1Cc1c(-c3noc(C)n3)ncn1-2 [Compound 88] | < 100 nM | 5 to 20% |
| < 100 nM | 5 to 20% | CC(C)c1noc(-c2ncn3c2Cc2cn(CC4CCOCC4)nc2-c2cc(Cl)ccc2-3)n1 [Compound 251] | – | – |
| – | – | Cn1cc2c(n1)-c1cc(Cl)ccc1-n1cnc(-c3noc(COC(C)(C)C)n3)c1C2 [Compound 215] | < 100 nM | 20 to 50% |
| < 100 nM | 20 to 50% | COc1ccc2c(c1)-c1[nH]ncc1Cc1c(-c3noc(C(F)(F)F)n3)ncn1-2 [Compound 87] | – | – |
| – | – | Clc1ccc2c(c1)-c1[nH]ncc1Cc1c(-c3nc(C4CC4)no3)ncn1-2 [Compound 105] | < 100 nM | 20 to 50% |
| – | – | CC(C)n1cc2c(n1)-c1cc(Cl)ccc1-n1cnc(-c3noc(C4COCCO4)n3)c1C2 (stereo not drawn) [Compound 268] | < 100 nM | 20 to 50% |
| – | – | COc1ccc2c(c1)-c1nn(C)cc1Cc1c(-c3noc(C4CCOC4)n3)ncn1-2 (stereo not drawn) [Compound 136] | < 100 nM | 20 to 50% |
| – | – | Clc1ccc2c(c1)-c1nn(CC3CCCO3)cc1Cc1c(-c3noc(C4CCOC4)n3)ncn1-2 (stereo not drawn) [Compound 308] | < 100 nM | 20 to 50% |
| – | – | CC(C)c1noc(-c2ncn3c2Cc2cn[nH]c2-c2cc(Cl)ccc2-3)n1 [Compound 34] | < 100 nM | 20 to 50% |
| – | – | COc1ccc2c(c1)-c1nn(C)cc1Cc1c(-c3nc(C(C)(C)C)no3)ncn1-2 [Compound 118] | < 100 nM | 20 to 50% |
| – | – | CC(C)c1noc(-c2ncn3c2Cc2cn(CC4CCOC4)nc2-c2cc(Cl)ccc2-3)n1 (stereo not drawn) [Compound 201] | < 100 nM | 5 to 20% |

| Ki (α5β3γ2 GABAA R; [2]) | activation at 0.1 µM (GABAA R (α5β2γ2); [3]) | SMILES | Ki (α5β3γ2 GABAA R) | activation at 0.1 µM (GABAA R (α5β2γ2); [1]) |
| --- | --- | --- | --- | --- |
| < 100 nM | 20 to 50% | FC(F)(F)c1noc(-c2ncn3c2Cc2cn(CC4CCOC4)nc2-c2cc(Cl)ccc2-3)n1 (stereo not drawn) [Compound 200] | – | – |
| < 100 nM | 20 to 50% | COc1ccc2c(c1)-c1[nH]ncc1Cc1c(C#Cc3ccnn3C)ncn1-2 [Compound 39] | – | – |
| – | – | COc1ccc(C#Cc2ncn3c2Cc2cn[nH]c2-c2cc(Cl)ccc2-3)cn1 [Compound 52] | < 100 nM | 5 to 20% |
| – | – | CC(C)c1nc(-c2ncn3c2Cc2cn[nH]c2-c2cc(Cl)ccc2-3)no1 [Compound 84] | < 100 nM | 5 to 20% |
| – | – | COCc1coc(-c2ncn3c2Cc2cn(C)nc2-c2cc(OC)ccc2-3)n1 [Compound 269] | < 100 nM | 5 to 20% |
| – | – | COc1ccc2c(c1)-c1nn(CC3CCCO3)cc1Cc1c(-c3nnc(C(F)(F)F)o3)ncn1-2 (stereo not drawn) [Compound 302] | < 100 nM | 5 to 20% |
| – | – | CN(C)Cc1coc(-c2ncn3c2Cc2cn(C)nc2-c2cc(Cl)ccc2-3)n1 [Compound 277] | < 100 nM | 20 to 50% |
| – | – | Cn1cc2c(n1)-c1cc(Cl)ccc1-n1cnc(-c3nc(C4CCOC4)no3)c1C2 (stereo not drawn) [Compound 134] | < 100 nM | 20 to 50% |
| – | – | COCCn1cc2c(n1)-c1cc(OC)ccc1-n1cnc(-c3noc(C(C)C)n3)c1C2 [Compound 110] | < 100 nM | 20 to 50% |
| – | – | Clc1ccc2c(c1)-c1[nH]ncc1Cc1c(-c3ncco3)ncn1-2 [Compound 55] | < 100 nM | 5 to 20% |
| – | – | COCc1noc(-c2ncn3c2Cc2cn(CC4CCCO4)nc2-c2cc(Cl)ccc2-3)n1 (stereo not drawn) [Compound 288] | < 100 nM | > 50% |
| – | – | COc1ccc2c(c1)-c1nn(C)cc1Cc1c(-c3noc(C(C)(C)C)n3)ncn1-2 [Compound 146] | < 100 nM | 5 to 20% |
| – | – | Clc1ccc2c(c1)-c1[nH]ncc1Cc1c(-c3nc(C4CCOC4)no3)ncn1-2 (stereo not drawn) [Compound 108] | < 100 nM | 20 to 50% |
| < 100 nM | 5 to 20% | CC(C)c1noc(-c2ncn3c2Cc2cn(Cc4cccnc4)nc2-c2cc(Cl)ccc2-3)n1 [Compound 98] | – | – |
| – | – | Clc1ccc2c(c1)-c1nn(Cc3ccccn3)cc1Cc1c(-c3nc(C4CC4)no3)ncn1-2 [Compound 135] | < 100 nM | 5 to 20% |
| – | – | COc1ccc2c(c1)-c1nn(CC3CCCO3)cc1Cc1c(-c3noc(C(F)(F)F)n3)ncn1-2 (stereo not drawn) [Compound 295] | < 100 nM | 20 to 50% |
| – | – | CCn1cc2c(n1)-c1cc(OC)ccc1-n1cnc(-c3noc(CN(C)C)n3)c1C2 [Compound 248] | < 100 nM | 20 to 50% |
| – | – | CCn1cc2c(n1)-c1cc(OC)ccc1-n1cnc(-c3nc(COC)no3)c1C2 [Compound 236] | < 100 nM | 20 to 50% |
| < 100 nM | 20 to 50% | Clc1ccc2c(c1)-c1[nH]ncc1Cc1c(C#Cc3ccccn3)ncn1-2 [Compound 94] | – | – |
| – | – | COc1ccc2c(c1)-c1nn(C)cc1Cc1c(-c3nnc(C)o3)ncn1-2 [Compound 290] | < 100 nM | 20 to 50% |

| Ki (α5β3γ2 GABAA R; [2]) | activation at 0.1 µM (GABAA R (α5β2γ2); [3]) | SMILES | Ki (α5β3γ2 GABAA R) | activation at 0.1 µM (GABAA R (α5β2γ2); [1]) |
| --- | --- | --- | --- | --- |
| < 100 nM | 20 to 50% | CCn1cc2c(n1)-c1cc(Cl)ccc1-n1cnc(-c3nc(C4CC4)no3)c1C2 [Compound 133] | – | – |
| < 100 nM | 20 to 50% | COc1ccc2c(c1)-c1nn(Cc3ccccc3)cc1Cc1c(-c3cnn(Cc4ccccc4)c3)ncn1-2 [Compound 76] | – | – |
| – | – | COc1ccc2c(c1)-c1nn(C)cc1Cc1c(-c3noc(C4COC4)n3)ncn1-2 [Compound 202] | < 100 nM | 20 to 50% |
| – | – | Cn1cc2c(n1)-c1cc(Cl)ccc1-n1cnc(-c3cnn(CC4CCCO4)c3)c1C2 (stereo not drawn) [Compound 222] | < 100 nM | 5 to 20% |
| – | – | COCc1noc(-c2ncn3c2Cc2cn(C)nc2-c2cc(OC)ccc2-3)n1 [Compound 170] | < 100 nM | 20 to 50% |
| – | – | CC(C)c1noc(-c2ncn3c2Cc2cn(Cc4ccncc4)nc2-c2cc(Cl)ccc2-3)n1 [Compound 97] | < 100 nM | 5 to 20% |
| – | – | FC(F)(F)c1noc(-c2ncn3c2Cc2cn(C4CCOC4)nc2-c2cc(Cl)ccc2-3)n1 (stereo not drawn) [Compound 228] | < 100 nM | 5 to 20% |
| < 100 nM | 5 to 20% | CCn1cc2c(n1)-c1cc(OC)ccc1-n1cnc(-c3noc(C(F)(F)F)n3)c1C2 [Compound 158] | – | – |
| – | – | CCn1cc2c(n1)-c1cc(OC)ccc1-n1cnc(-c3noc(C4CC4)n3)c1C2 [Compound 157] | < 100 nM | 20 to 50% |
| – | – | CCn1cc2c(n1)-c1cc(OC)ccc1-n1cnc(-c3noc(C(C)C)n3)c1C2 [Compound 156] | < 100 nM | 20 to 50% |
| – | – | Cn1cc2c(n1)-c1cc(Cl)ccc1-n1cnc(-c3nc(CN4CCOCC4)co3)c1C2 [Compound 276] | < 100 nM | 20 to 50% |
| < 100 nM | > 50% | COc1ccc2c(c1)-c1n[nH]cc1Cc1c(-c3noc(C(C)(C)OC)n3)ncn1-2 [Compound 181] | – | – |
| – | – | Cc1nc(-c2ncn3c2Cc2cn[nH]c2-c2cc(Cl)ccc2-3)no1 [Compound 86] | < 100 nM | 5 to 20% |
| < 100 nM | 20 to 50% | COc1ccc2c(c1)-c1nn(C)cc1Cc1c(-c3noc(C(C)C)n3)ncn1-2 [Compound 109] | – | – |
| – | – | COc1ccc2c(c1)-c1nn(C3CCOC3)cc1Cc1c(-c3noc(COCC(F)(F)F)n3)ncn1-2 (stereo not drawn) [Compound 279] | < 100 nM | 20 to 50% |
| – | – | COc1ccc2c(c1)-c1c(cnn1CC1CCOC1)Cc1c(-c3nc(C4CC4)no3)ncn1-2 (stereo not drawn) [Compound 249] | < 100 nM | 5 to 20% |
| – | – | COc1ccc2c(c1)-c1nn(CC3CCOC3)cc1Cc1c(-c3nc(C(C)C)no3)ncn1-2 (stereo not drawn) [Compound 245] | < 100 nM | 20 to 50% |
| – | – | COC(C)(C)c1noc(-c2ncn3c2Cc2cn(CC4CCCO4)nc2-c2cc(Cl)ccc2-3)n1 (stereo not drawn) [Compound 280] | < 100 nM | 20 to 50% |
| < 100 nM | 20 to 50% | COc1ccc2c(c1)-c1[nH]ncc1Cc1c(C#Cc3ccccn3)ncn1-2 [Compound 90] | – | – |
| < 100 nM | 5 to 20% | CCn1cc2c(n1)-c1cc(Cl)ccc1-n1cnc(-c3noc(C4CC4)n3)c1C2 [Compound 176] | – | – |
